Data published in patent US20150196562A1, “FORMULATIONS OF 3-(5-AMINO-2-METHYL-4-OXO-4H-QUINAZOLIN-3-YL)-PIPERIDINE-2,6-DIONE” (Celgene Corporation, priority 2014, published 2015).

Test: Degradation of Compound A by hydrolysis
Assay type: physicochemical
Settings: water
Description: Also provided herein are anhydrous pharmaceutical compositions and dosage forms including an active ingredient, since water can facilitate the degradation of some compounds. For example, the addition of water (e.g., 5 percent) is widely accepted in the pharmaceutical arts as a means of simulating shelf-life, i.e., long-term storage in order to determine characteristics such as shelf-life or the stability of formulations over time. See, e.g., Jens T. Carstensen, Drug Stability: Principles & Practice, 2d. Ed., Marcel Dekker, NY, N.Y., 1995, pp. 379-80. In effect, water and heat accelerate decomposition. Thus, the effect of water on a formulation can be of great significance since moisture and/or humidity are commonly encountered during manufacture, handling, packaging, storage, shipment, and use of formulations.

degradation by hydrolysis: easily degraded by hydrolysis
Compound: Cc1nc2cccc(N)c2c(=O)n1C1CCC(=O)NC1=O (stereo not shown) [Compound A, 3-(5-amino-2-methyl-4-oxo-4H-quinazolin-3-yl)-piperidine-2,6-dione]
